According to ChEMBL document CHEMBL2069206 (J Med Chem, 2012):

Legend:
Adenosine receptor A2a [1] = molecular target: T1, Adenosine receptor A2a (Homo sapiens, UniProt P29274); test: Displacement of 3[H]CGS21680 from human A2A adenosine receptor expressed in HEK293 cells after 60 mins by Liquid scintillation analysis; format: cell-based
Adenosine receptor A2a [2] = molecular target: T1, Adenosine receptor A2a; test: Agonist activity at human A2A adenosine receptor expressed in CHO cells assessed as stimulation of forskolin-induced cAMP accumulation after 30 mins; format: functional, cell-based
Adenosine receptor A2a [3] = molecular target: T1, Adenosine receptor A2a; test: Agonist activity at human A2A adenosine receptor expressed in CHO cells assessed as stimulation of forskolin-induced cAMP accumulation after 30 mins relative to NECA; format: functional, cell-based
[4] = molecular target: T2, Adenosine receptor A1 (Homo sapiens) (UniProt P30542); test: Agonist activity at human A1 adenosine receptor expressed in CHO cells assessed as inhibition of forskolin-induced cAMP accumulation after 30 mins relative to NECA; format: functional, cell-based
T2 sequence (whole entry): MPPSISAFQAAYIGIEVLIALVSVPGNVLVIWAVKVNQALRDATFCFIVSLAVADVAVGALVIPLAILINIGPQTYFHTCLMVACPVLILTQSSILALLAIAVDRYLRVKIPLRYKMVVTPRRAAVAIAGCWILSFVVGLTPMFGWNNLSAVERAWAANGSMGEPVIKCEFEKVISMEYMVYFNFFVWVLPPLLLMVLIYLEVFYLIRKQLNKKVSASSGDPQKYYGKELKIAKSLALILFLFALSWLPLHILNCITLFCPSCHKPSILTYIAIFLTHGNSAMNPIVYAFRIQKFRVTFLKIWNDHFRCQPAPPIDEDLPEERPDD

Adenosine receptor A3 = molecular target: T3, Adenosine receptor A3 (Homo sapiens, UniProt P0DMS8); test: Displacement of [125I]I-AB-MECA from human A3 adenosine receptor expressed in CHO cells after 60 mins gamma counter; format: cell-based
T3 sequence (P0DMS8 whole entry): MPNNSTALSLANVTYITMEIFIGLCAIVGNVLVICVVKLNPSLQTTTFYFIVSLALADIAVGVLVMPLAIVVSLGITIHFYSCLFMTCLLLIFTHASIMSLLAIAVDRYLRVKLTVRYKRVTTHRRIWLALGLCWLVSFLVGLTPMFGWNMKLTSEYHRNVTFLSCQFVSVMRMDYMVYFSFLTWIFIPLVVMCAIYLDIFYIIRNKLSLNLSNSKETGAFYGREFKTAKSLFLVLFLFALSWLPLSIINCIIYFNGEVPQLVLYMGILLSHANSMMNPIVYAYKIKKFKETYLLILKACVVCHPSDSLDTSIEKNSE

Adenosine receptor A1 [5] = molecular target: T4, Adenosine receptor A1 (Homo sapiens, UniProt P30542); test: Displacement of 3[H]R-PIA from human A1 adenosine receptor expressed in CHO cells after 60 mins by Liquid scintillation analysis; format: cell-based
T4 sequence (P30542 whole entry): T2 sequence (whole entry)

[6] = molecular target: Adenosine receptor A2a (Rattus norvegicus) (UniProt P30543); conditions: HEK293, 10 uM
Sequence of Adenosine receptor A2a (Rattus norvegicus) (P30543 whole entry): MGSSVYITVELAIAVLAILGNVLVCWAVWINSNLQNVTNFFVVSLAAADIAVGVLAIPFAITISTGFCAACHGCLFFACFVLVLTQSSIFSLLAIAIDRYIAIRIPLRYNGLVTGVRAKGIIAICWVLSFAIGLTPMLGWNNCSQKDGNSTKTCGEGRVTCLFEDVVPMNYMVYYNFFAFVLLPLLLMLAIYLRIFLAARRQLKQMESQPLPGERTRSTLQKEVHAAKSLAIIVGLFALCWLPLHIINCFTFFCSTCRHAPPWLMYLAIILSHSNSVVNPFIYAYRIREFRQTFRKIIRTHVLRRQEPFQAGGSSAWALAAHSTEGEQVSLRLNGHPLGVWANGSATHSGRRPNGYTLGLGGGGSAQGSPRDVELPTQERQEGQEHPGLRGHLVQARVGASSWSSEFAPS

[7] = molecular target: T5, Adenosine receptor A1 (Rattus norvegicus) (UniProt P25099); conditions: CHO, 10 uM
T5 sequence (whole entry): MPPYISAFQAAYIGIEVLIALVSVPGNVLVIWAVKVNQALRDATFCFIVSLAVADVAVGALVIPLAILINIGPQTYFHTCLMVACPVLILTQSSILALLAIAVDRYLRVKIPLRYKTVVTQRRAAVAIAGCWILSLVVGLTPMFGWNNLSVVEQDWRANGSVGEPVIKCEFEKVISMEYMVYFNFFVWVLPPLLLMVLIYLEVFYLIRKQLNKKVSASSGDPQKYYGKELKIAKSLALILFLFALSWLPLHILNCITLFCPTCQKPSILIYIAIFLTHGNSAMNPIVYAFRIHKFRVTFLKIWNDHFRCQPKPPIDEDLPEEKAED

[8] = molecular target: T2, Adenosine receptor A1 (Homo sapiens); test: Partial agonist activity at human A1 adenosine receptor expressed in CHO cells assessed as inhibition of forskolin-induced cAMP accumulation after 30 mins relative to NECA; format: functional, cell-based
Adenosine receptor A1 [9] = molecular target: T4, Adenosine receptor A1; test: Partial agonist activity at human A1 adenosine receptor expressed in CHO cells assessed as inhibition of forskolin-induced cAMP accumulation after 30 mins; format: functional, cell-based

T1 sequence (P29274 whole entry): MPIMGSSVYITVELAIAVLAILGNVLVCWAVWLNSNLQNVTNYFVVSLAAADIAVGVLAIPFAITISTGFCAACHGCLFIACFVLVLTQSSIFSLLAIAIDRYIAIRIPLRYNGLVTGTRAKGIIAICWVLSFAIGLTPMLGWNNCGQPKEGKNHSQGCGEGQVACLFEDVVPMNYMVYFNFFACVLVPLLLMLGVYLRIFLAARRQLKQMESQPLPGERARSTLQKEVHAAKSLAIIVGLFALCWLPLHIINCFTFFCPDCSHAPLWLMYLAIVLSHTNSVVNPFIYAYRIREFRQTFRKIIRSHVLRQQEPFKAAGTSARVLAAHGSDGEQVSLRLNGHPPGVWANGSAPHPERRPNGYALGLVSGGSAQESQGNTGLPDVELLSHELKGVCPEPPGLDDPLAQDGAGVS

| SMILES | Ki (Adenosine receptor A2a [1]) [µM] | EC50 (Adenosine receptor A2a [2]) [µM] | Efficacy [4] [%] | Ki (Adenosine receptor A3) [µM] | Ki (Adenosine receptor A1 [5]) [µM] | other results |
| --- | --- | --- | --- | --- | --- | --- |
| Nc1ncnc2c1ncn2[C@@H]1O[C@H](C(=O)NC2CCCC2)[C@@H](O)[C@H]1O | 0.65 | 0.225 | 92.5 | 0.07 | 0.027 | Efficacy (Adenosine receptor A2a [3]): 75% |
| CCNC(=O)[C@H]1O[C@@H](n2cnc3c(N)ncnc32)[C@H](O)[C@@H]1O | – | – | 100 | – | – | – |
| NCCCNC(=O)[C@H]1O[C@@H](n2cnc3c(N)ncnc32)[C@H](O)[C@@H]1O | – | – | – | – | > 10 | – |
| NCCNC(=O)[C@H]1O[C@@H](n2cnc3c(N)ncnc32)[C@H](O)[C@@H]1O | – | – | – | – | – | inhibition [6]: > 10%; inhibition [7]: > 10% |
| Nc1ncnc2c1ncn2[C@@H]1O[C@H](C(=O)NCC(F)(F)F)[C@@H](O)[C@H]1O | – | – | – | 0.7 | […] | Efficacy [8]: 73.4% |
| Nc1ncnc2c1ncn2[C@@H]1O[C@H](C(=O)NC2CC2)[C@@H](O)[C@H]1O | 0.05 | 0.0229 | 95.4 | 0.18 | 0.0019 | – |
| Nc1ncnc2c1ncn2[C@@H]1O[C@H](C(=O)NC2CCC2)[C@@H](O)[C@H]1O | 0.034 | 0.0268 | – | 0.07 | – | Efficacy (Adenosine receptor A2a [3]): 99%; Efficacy [8]: 65.2%; EC50 (Adenosine receptor A1 [9]): 0.0151 µM |
